US20240391862A1, “(1,4,5-TRISUBSTITUTED-1H-PYRAZOL-3-YL)OXY-2-ALKOXY ALKYL ACIDS AND THEIR DERIVATIVES, THEIR SALTS AND THEIR USE AS HERBICIDAL AGENTS” (Bayer AKtiengesellschaft, priority 2021, published 2024)

Key:
[1] = test system: VERPE; experiment: Pre-emergence herbicidal effect, greenhouse pot test; format: in vivo, Veronica persica; details: scored visually after about 3 weeks vs untreated controls
Text: (§1) Seeds of monocotyledonous and dicotyledonous weed plants and crop plants are placed in plastic or organic planting pots and covered with soil. The compounds of the invention, formulated in the form of wettable powders (WP) or as emulsion concentrates (EC), are then applied to the surface of the covering soil as aqueous suspension or emulsion with addition of 0.5% additive at a water application rate equivalent to 600 l/ha. After the treatment, the pots are placed in a greenhouse and kept under good growth conditions for the trial plants. After about 3 weeks, the effect of the preparations is scored visually in comparison with untreated controls as percentages. For example, 100% activity=the plants have died, 0% activity=like control plants.
(§2) Tables 1a to 19c below show the effects/crop compatibilities of selected compounds of the general formula (I) on various harmful plants at an application rate corresponding to 20 to 320 g/ha, which were obtained by the trial procedure specified above.
(§3) • ALOMY: Alopecurus myosuroides SETVI: Setaria viridis • AVEFA: Avena fatua POLCO: Fallopia convolvulus • AMARE: Amaranthus retroflexus ECHCG: Echinochloa crus-galli • LOLRJ: Lolium rigidum STEME: Stellaria media • VERPE: Veronica persica MATIN: Tripleurospermum inodorum • DIGSA: Digitaria sanguinalis ABUTH: Abutylon threophrasti • TRZAS: Triticum aestivum VIOTR: Viola tricolor • BRSNW: Brassica napus ZEAMX: Zea mays • PHBPU: Ipomoea purpurea GLXMA: Glycine max • ORYSA: Oryza sativa HORMU: Hordeum murinum

[2] = test system: ABUTH; experiment: Post-emergence herbicidal effect, greenhouse pot test; format: in vivo, Abutilon theophrasti; details: Abutilon theophrasti, 504 h, visual rating about 3 weeks after treatment, read-out: Post-emergence effect against ABUTH
How it was run: (§4)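 Weeds sown in sandy loam, greenhouse-grown 2–3 weeks, then sprayed at one-leaf stage with WP or EC formulations in water plus 0.5% additive at 600 l/ha. Rates 20 to 320 g/ha. Visual rating after about 3 weeks versus untreated controls (100% = plants dead, 0% = like control).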

[3] = test system: POLCO; experiment: as above; format: in vivo, Fallopia convolvulus; details: Fallopia convolvulus, 504 h, read-out: Post-emergence effect against POLCO in %
How it was run: as §4

[4] = test system: various unwanted plants; experiment: Pre-emergence effect against various unwanted plants (PE): comparative test of I-01 with compounds from WO2020/245044 (Tables 40a, 40b) and summary statements; format: in vivo
Text: Seeds of monocotyledonous and dicotyledonous weed plants and crop plants are placed in plastic or organic planting pots and covered with soil. The compounds of the invention, formulated in the form of wettable powders (WP) or as emulsion concentrates (EC), are then applied to the surface of the covering soil as aqueous suspension or emulsion with addition of 0.5% additive at a water application rate equivalent to 600 l/ha. After the treatment, the pots are placed in a greenhouse and kept under good growth conditions for the trial plants. After about 3 weeks, the effect of the preparations is scored visually in comparison with untreated controls as percentages. For example, 100% activity=the plants have died, 0% activity=like control plants. Tables 40a and 40b below show the effects of the inventive compound (I-01) with structurally similar compounds (from WO2020/245044) on various harmful plants at an application rate corresponding to 320 g/ha or less, which have been obtained by the trial procedure specified hereinafter. The inventive compound (I-01) differs here by variance of a significant structural feature from the structurally similar compound with regard to the R^2 radical. Seeds of monocotyledonous and dicotyledonous weed plants and crop plants are placed in plastic or organic planting pots and covered with soil. The compounds of the invention, formulated in the form of wettable powders (WP) or as emulsion concentrates (EC), are then applied to the surface of the covering soil as aqueous suspension or emulsion with addition of 0.5% additive at a water application rate equivalent to 600 l/ha. After the treatment, the pots are placed in a greenhouse and kept under good growth conditions for the trial plants. After about 3 weeks, the effect of the preparations is scored visually in comparison with untreated controls as percentages. For example, 100% activity=the plants have died, 0% activity=like control plants. Effects/crop compatibilities of selected compounds (Table 39) on various harmful plants at an application rate corresponding to 80 to 320 g/ha that have been obtained by the trial procedure specified hereinabove are shown in Tables 40a and 40b below.

[5] = test system: GLXMA; experiment: Pre-emergence herbicidal effect and crop plant compatibility, greenhouse pot test; format: in vivo, Glycine max; details: 80 g/ha, scored visually after about 3 weeks vs untreated controls
How it was run: (§5)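 Seeds sown in pots and covered with soil; WP- or EC-formulated compounds applied to the soil surface as aqueous suspension/emulsion with 0.5% additive at 600 l/ha water, 20 to 320 g/ha. Greenhouse growth; visual % effect vs untreated controls after about 3 weeks (100% = plants died, 0% = like control).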

[6] = test system: PHBPU; experiment: Pre-emergence herbicidal effect, greenhouse pot test; format: in vivo, Ipomoea purpurea; details: scored visually after about 3 weeks vs untreated controls
How it was run: as §5

[7] = test system: ABUTH; experiment: as above; format: in vivo, Abutilon theophrasti; details: 320 g/ha, scored visually after about 3 weeks vs untreated controls
Text: as §1, §2, §3

[8] = test system: VIOTR; experiment: as above; format: in vivo, Viola tricolor; details: scored visually after about 3 weeks vs untreated controls
Text: as §1, §2, §3

[9] = test system: DIGSA; experiment: Post-emergence herbicidal effect, greenhouse pot test; format: in vivo, Digitaria sanguinalis; details: Digitaria sanguinalis, 504 h, visual rating about 3 weeks after treatment, read-out: Post-emergence effect against DIGSA
How it was run: as §4

[10] = test system: ZEAMX; experiment: Post-emergence herbicidal effect and crop plant compatibility, greenhouse pot test; format: in vivo, Zea mays; details: Zea mays, 504 h, 80 g/ha, one-leaf stage, rated visually after about 3 weeks vs untreated controls, read-out: Post-emergence effect at 80 g/ha against ZEAMX in %
How it was run: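 Greenhouse pot plants in sandy loam receive a one-leaf-stage spray at 20 to 320 g/ha. Activity is assessed visually around 3 weeks afterwards on a 0–100% scale, where 100% means the plants have died.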

[11] = test system: DIGSA; experiment: Pre-emergence herbicidal effect, greenhouse pot test; format: in vivo, Digitaria sanguinalis; details: 320 g/ha, scored visually after about 3 weeks vs untreated controls
How it was run: as §5

## CCOC(=O)C(OCC)Oc1nn(-c2ccccc2F)c(-c2ccc(F)nc2)c1Br (racemic) [Example I-01, Ethyl (2RS)-{[4-bromo-1-(2-fluorophenyl)-5-(6-fluoropyridin-3-yl)-1H-pyrazol-3-yl]oxy}(ethoxy)acetate]
[1]
  Pre-emergence effect at 320 g/ha against VERPE in %: 80%
[2]; 80 g/ha
  pest or weed control at 80 g/ha: 80%
[2]
  pest or weed control at 320 g/ha: 90%
[3]; 80 g/ha
  pest or weed control at 80 g/ha: 80%
[3]
  pest or weed control at 320 g/ha: 80%
[4]; ALOMY, 320 g/ha, comparative test
  Pre-emergence effect, Effect %, ALOMY: 90%
[4]; 80 g/ha, comparative test
  Pre-emergence effect, Effect %, ECHCG: 70%
  Pre-emergence effect, Effect %, LOLRI: 90%
  Pre-emergence effect, Effect %, MATIN: 90%
[4]; 320 g/ha, comparative test
  Pre-emergence effect, Effect %, ECHCG: 100%
  Pre-emergence effect, Effect %, LOLRI: 100%
  Pre-emergence effect, Effect %, MATIN: 90%
[4]; POLCO, 80 g/ha, comparative test
  Pre-emergence effect, Effect %, POLCO: 80%
[4]; SETVI, 320 g/ha, comparative test
  Pre-emergence effect, Effect %, SETVI: 100%
[4]; different harmful plants, 320 g or less per hectare, vs compounds from WO2020/245044
  herbicidal efficacy by comparison to the structurally similar compounds (Tables 40a and 40b): distinctly improved herbicidal efficacy
[5]
  Pre-emergence effect at 80 g/ha against GLXMA in %: 0%

## COC(=O)C(OC)Oc1nn(-c2ccccc2F)c(-c2ccc(F)nc2)c1Br (racemic) [Example I-04, Methyl (2RS)-{[4-bromo-1-(2-fluorophenyl)-5-(6-fluoropyridin-3-yl)-1H-pyrazol-3-yl]oxy}(methoxy)acetate]
[1]
  Pre-emergence effect at 320 g/ha against VERPE in %: 90%
[6]; 80 g/ha
  Pre-emergence effect at 80 g/ha against PHBPU in %: 80%
[6]
  Pre-emergence effect at 320 g/ha against PHBPU in %: 90%
[2]
  pest or weed control at 320 g/ha: 80%
[7]
  Pre-emergence effect at 320 g/ha against ABUTH in %: 80%
[8]; 80 g/ha
  Pre-emergence effect at 80 g/ha against VIOTR in %: 80%
[8]
  Pre-emergence effect at 320 g/ha against VIOTR in %: 100%

## COC(=O)C(OC)Oc1nn(-c2ncccc2F)c(-c2ccc(F)nc2)c1Br (stereo not shown) [Example I-05]
[9]; 80 g/ha
  pest or weed control at 80 g/ha: 90%
[9]; 320 g/ha
  pest or weed control at 320 g/ha: 90%
[10]
  plant injury at 80 g/ha: 20%
[6]
  Pre-emergence effect at 320 g/ha against PHBPU in %: 80%
[11]
  Pre-emergence effect at 320 g/ha against DIGSA in %: 90%
[3]
  pest or weed control at 320 g/ha: 80%
[8]
  Pre-emergence effect at 320 g/ha against VIOTR in %: 100%
[5]
  Pre-emergence effect at 80 g/ha against GLXMA in %: 10%
